Read-outs that look alike come from different tables or passages of the source.
Legend:
[1] = molecular target: ABL1 (Homo sapiens, UniProt P00519); conditions: 0.1 µM, binder
[2] = molecular target: ABL2 (Homo sapiens, UniProt P42684); conditions: 0.1 µM; binder
[3] = molecular target: AKT2 (Homo sapiens, UniProt P31751); conditions: 0.1 µM; binder
[4] = molecular target: ALK (Homo sapiens, UniProt Q9UM73); conditions: 0.1 µM; binder
[5] = molecular target: ALK(C1156Y) (Homo sapiens, UniProt Q9UM73, C1156Y); conditions: 0.1 µM; binder
[6] = molecular target: BMX (Homo sapiens, UniProt P51813); conditions: 0.1 µM; binder
[7] = molecular target: CAMK1 (Homo sapiens, UniProt Q14012); conditions: 0.1 µM; binder
[8] = molecular target: CAMKK2 (Homo sapiens, UniProt Q96RR4); conditions: 0.1 µM; binder
[9] = molecular target: CDC2L5 (Homo sapiens, UniProt Q14004); conditions: 0.1 µM; binder
[10] = molecular target: CDKL5 (Homo sapiens, UniProt O76039); conditions: 0.1 µM; binder
[11] = molecular target: CLK3 (Homo sapiens, UniProt P49761); conditions: 0.1 µM; binder
[12] = molecular target: DMPK (Homo sapiens, UniProt Q09013); conditions: 0.1 µM; binder
[13] = molecular target: EGFR(G719S) (Homo sapiens, UniProt P00533, G719S); conditions: 0.1 µM; binder
[14] = molecular target: ERBB4 (Homo sapiens, UniProt Q15303); conditions: 0.1 µM; binder
[15] = molecular target: FLT3(ITD,F691L) (Homo sapiens, UniProt P36888, F691L/ITD); conditions: 0.1 µM; binder
[16] = molecular target: GRK3 (Homo sapiens, UniProt P35626); conditions: 0.1 µM; binder
[17] = molecular target: MAP4K2 (Homo sapiens, UniProt Q12851); conditions: 0.1 µM; binder
[18] = molecular target: MAPKAPK2 (Homo sapiens, UniProt P49137); conditions: 0.1 µM; binder
[19] = molecular target: MRCKB (Homo sapiens, UniProt Q9Y5S2); conditions: 0.1 µM; binder
[20] = molecular target: MYLK4 (Homo sapiens, UniProt Q86YV6); conditions: 0.1 µM; binder
[21] = molecular target: NEK6 (Homo sapiens, UniProt Q9HC98); conditions: 0.1 µM; binder
[22] = molecular target: PAK2 (Homo sapiens, UniProt Q13177); conditions: 0.1 µM; binder
[23] = molecular target: PIK3CA (Homo sapiens, UniProt P42336); conditions: 0.1 µM; binder
[24] = molecular target: PLK4 (Homo sapiens, UniProt O00444); conditions: 0.1 µM; binder
[25] = molecular target: RIPK1 (Homo sapiens, UniProt Q13546); conditions: 0.1 µM; binder
[26] = molecular target: STK35 (Homo sapiens, UniProt Q8TDR2); conditions: 0.1 µM; binder
[27] = molecular target: STK36 (Homo sapiens, UniProt Q9NRP7); conditions: 0.1 µM; binder
[28] = molecular target: TRKA (Homo sapiens, UniProt P04629); conditions: 0.1 µM; binder
[29] = molecular target: TRPM6 (Homo sapiens, UniProt Q9BX84); conditions: 0.1 µM; binder
[30] = molecular target: TTK (Homo sapiens, UniProt P33981); conditions: 0.1 µM; binder
[31] = molecular target: ULK1 (Homo sapiens, UniProt O75385); conditions: 0.1 µM; binder

ABL1, sequence (P00519 whole entry): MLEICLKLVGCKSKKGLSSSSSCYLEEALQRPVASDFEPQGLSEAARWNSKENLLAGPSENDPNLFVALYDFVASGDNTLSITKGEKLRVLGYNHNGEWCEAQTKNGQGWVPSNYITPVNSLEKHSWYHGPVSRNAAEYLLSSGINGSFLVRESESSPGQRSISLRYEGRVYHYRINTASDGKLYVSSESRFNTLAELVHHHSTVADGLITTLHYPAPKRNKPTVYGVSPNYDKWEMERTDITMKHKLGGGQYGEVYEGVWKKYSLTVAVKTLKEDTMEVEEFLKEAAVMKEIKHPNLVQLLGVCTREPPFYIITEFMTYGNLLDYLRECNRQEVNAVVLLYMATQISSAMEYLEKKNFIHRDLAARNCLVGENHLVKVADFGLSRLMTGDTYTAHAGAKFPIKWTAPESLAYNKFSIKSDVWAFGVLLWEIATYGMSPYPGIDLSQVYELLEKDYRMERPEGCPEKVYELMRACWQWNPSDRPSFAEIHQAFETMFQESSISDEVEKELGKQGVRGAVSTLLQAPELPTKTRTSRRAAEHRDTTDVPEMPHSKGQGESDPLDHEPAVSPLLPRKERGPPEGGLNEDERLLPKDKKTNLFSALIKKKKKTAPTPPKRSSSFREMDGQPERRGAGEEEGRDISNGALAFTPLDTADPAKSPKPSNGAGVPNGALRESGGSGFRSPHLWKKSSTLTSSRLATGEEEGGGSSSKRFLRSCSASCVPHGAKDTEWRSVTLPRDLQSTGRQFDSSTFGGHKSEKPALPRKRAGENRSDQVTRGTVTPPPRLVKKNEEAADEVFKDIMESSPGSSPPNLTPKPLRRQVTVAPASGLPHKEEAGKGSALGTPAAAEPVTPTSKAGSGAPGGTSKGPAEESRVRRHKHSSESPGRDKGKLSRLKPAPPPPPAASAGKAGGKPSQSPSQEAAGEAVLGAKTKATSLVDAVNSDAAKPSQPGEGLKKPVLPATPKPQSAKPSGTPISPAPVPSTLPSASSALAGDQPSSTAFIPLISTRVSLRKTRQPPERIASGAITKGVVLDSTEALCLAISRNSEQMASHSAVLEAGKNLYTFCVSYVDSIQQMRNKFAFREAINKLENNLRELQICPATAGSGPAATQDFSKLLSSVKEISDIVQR
BMX, sequence (P51813 whole entry): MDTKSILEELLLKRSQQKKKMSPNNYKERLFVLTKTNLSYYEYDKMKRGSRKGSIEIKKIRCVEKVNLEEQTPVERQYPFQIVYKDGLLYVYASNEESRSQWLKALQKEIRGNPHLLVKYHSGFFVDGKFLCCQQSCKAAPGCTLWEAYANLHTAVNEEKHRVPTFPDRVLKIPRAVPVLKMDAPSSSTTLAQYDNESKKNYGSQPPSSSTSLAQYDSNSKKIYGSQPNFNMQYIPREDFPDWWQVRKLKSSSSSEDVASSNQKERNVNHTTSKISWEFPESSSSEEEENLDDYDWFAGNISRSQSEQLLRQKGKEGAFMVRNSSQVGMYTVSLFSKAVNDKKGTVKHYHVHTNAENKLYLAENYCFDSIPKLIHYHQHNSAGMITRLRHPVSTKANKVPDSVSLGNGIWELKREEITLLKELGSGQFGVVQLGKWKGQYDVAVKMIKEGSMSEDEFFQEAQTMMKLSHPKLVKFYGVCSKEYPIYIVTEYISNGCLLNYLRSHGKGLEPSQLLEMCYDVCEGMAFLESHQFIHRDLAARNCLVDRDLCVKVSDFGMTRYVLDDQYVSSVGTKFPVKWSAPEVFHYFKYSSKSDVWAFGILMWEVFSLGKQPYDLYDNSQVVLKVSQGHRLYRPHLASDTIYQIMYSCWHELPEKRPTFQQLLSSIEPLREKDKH
ALK(C1156Y), sequence (Q9UM73 whole entry C1156Y): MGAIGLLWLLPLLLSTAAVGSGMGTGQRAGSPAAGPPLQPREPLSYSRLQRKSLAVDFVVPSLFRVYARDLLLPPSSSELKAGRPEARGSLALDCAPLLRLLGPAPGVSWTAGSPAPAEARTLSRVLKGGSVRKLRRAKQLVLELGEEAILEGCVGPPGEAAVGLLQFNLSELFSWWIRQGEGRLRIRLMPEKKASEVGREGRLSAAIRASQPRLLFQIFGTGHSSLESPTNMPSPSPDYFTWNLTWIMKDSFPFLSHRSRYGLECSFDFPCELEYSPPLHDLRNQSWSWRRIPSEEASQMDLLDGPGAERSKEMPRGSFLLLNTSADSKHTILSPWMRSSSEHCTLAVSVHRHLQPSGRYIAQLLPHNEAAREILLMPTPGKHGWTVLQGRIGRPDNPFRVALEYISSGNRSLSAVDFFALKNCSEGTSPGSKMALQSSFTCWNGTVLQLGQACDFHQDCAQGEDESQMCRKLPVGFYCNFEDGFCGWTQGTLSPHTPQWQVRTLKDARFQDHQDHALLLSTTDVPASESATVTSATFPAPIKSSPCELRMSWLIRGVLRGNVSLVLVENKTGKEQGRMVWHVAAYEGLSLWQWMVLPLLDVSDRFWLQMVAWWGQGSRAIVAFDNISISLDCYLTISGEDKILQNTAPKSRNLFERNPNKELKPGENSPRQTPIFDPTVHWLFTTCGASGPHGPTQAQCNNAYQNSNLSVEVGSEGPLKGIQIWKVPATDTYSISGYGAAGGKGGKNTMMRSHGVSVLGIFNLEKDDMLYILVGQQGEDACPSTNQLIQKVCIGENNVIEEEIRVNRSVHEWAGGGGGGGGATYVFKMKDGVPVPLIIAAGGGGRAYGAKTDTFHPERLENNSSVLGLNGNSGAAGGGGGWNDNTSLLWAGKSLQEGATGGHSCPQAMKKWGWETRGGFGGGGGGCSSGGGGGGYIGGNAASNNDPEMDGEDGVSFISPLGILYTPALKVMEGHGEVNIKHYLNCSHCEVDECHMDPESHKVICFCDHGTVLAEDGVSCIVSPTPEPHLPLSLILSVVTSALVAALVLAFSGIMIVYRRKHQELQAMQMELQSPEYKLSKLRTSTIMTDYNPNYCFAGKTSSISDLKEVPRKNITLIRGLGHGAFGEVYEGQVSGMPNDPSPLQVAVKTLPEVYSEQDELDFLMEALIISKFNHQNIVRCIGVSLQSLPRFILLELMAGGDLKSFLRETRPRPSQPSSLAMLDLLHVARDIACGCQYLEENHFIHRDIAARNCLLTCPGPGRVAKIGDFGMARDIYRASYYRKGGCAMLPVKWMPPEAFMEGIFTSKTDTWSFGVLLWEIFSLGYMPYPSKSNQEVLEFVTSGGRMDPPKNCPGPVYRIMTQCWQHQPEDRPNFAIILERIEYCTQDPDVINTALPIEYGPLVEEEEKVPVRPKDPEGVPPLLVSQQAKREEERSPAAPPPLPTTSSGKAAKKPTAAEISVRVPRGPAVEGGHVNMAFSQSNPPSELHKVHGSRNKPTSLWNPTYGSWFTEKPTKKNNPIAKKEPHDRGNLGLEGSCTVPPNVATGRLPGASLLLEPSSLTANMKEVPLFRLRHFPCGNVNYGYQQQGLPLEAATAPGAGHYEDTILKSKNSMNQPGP
DMPK, sequence (Q09013 whole entry): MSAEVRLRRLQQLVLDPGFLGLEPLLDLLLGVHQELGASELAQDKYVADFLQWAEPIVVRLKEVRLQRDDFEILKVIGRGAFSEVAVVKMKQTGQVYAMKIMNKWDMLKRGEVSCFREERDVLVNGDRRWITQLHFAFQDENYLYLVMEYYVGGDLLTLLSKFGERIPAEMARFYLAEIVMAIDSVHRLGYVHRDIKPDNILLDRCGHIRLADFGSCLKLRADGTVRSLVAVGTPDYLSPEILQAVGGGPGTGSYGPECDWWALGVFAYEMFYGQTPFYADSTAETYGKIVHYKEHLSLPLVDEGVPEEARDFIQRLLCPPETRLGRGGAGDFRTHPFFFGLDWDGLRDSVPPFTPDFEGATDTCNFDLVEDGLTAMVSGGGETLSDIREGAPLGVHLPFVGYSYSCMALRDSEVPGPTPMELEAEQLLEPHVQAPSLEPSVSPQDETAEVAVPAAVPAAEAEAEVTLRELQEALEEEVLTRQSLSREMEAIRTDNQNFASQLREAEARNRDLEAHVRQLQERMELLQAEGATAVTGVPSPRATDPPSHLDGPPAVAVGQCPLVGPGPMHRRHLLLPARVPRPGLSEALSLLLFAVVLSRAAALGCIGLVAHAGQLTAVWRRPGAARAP
PAK2, sequence (Q13177 whole entry): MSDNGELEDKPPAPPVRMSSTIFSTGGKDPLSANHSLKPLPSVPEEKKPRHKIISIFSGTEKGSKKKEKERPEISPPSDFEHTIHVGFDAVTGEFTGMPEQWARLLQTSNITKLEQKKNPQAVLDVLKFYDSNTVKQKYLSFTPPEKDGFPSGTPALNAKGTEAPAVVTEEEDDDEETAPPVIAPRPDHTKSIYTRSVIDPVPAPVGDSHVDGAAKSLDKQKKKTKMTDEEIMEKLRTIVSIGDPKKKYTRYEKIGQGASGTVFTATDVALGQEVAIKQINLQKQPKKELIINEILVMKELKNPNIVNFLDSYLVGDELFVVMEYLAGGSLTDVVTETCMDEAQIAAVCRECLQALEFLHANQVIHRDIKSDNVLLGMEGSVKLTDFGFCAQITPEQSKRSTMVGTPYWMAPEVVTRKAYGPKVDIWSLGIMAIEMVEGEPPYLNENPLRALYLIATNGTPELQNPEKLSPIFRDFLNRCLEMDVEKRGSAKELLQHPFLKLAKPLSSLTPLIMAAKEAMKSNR
ALK, sequence (Q9UM73 whole entry): as the sequence (Q9UM73 whole entry C1156Y) above, with Y1156C counted along it
NEK6, sequence (Q9HC98 whole entry): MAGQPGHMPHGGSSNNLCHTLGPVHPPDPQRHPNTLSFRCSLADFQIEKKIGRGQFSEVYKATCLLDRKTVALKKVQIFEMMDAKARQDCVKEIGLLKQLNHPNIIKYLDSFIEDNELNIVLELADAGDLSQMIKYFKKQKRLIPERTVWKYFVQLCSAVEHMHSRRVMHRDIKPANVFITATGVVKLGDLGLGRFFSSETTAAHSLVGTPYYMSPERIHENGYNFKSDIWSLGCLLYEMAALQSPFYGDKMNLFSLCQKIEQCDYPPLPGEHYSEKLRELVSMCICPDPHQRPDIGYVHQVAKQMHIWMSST

For `CNc1ncc2cc(-c3ccc(-c4cccc(C)n4)cc3Cl)c(=O)n(C[C@H]3OC[C@H](N)CO3)c2n1` [compound 6, G-5555], the “Percent Control” value ([1]; nonphosphorylated) was 94%, the “Percent Control” value ([1]; phosphorylated) was 95% and the “Percent Control” value [2] was 100%. For the same molecule, the “Percent Control” value [3] was 100%, the “Percent Control” value [4] was 89% and the “Percent Control” value [5] was 100%. For the same molecule, the “Percent Control” value [6] was 100%, the “Percent Control” value [7] was 100% and the “Percent Control” value [8] was 100%. For the same molecule, the “Percent Control” value [9] was 79%, the “Percent Control” value [10] was 82% and the “Percent Control” value [11] was 100%. For the same molecule, the “Percent Control” value [12] was 100%, the “Percent Control” value [13] was 100% and the “Percent Control” value [14] was 100%. The “Percent Control” value [15] was 56%, the “Percent Control” value [16] was 83% and the “Percent Control” value [17] was 63%. The “Percent Control” value [18] was 100%, the “Percent Control” value [19] was 73% and the “Percent Control” value [20] was 100%. The “Percent Control” value [21] was 100%, the “Percent Control” value [22] was 13% and the “Percent Control” value [23] was 94%. For the same molecule, the “Percent Control” value [24] was 84%, the “Percent Control” value [25] was 100% and the “Percent Control” value [26] was 100%. For the same molecule, the “Percent Control” value [27] was 36%, the “Percent Control” value [28] was 77% and the “Percent Control” value [29] was 100%. For the same molecule, the “Percent Control” value [30] was 100% and the “Percent Control” value [31] was 100%.

Reference: publication doi:10.1101/2021.04.08.439011v1 (biorxiv, 2021)
